Experimental data from patent US8273775B2, “Non-steroidal brassinosteroid mimetic” (priority 2006, dated 2012).

Tested on: gene expression in Col-0 seedling shoots
Assay: Microarray analysis (ATH1 Affymetrix) after BL or abrasin treatment
Format: in vivo, Arabidopsis
Procedure: FIG. 14: Clustering of gene expression profiles by QT-clust analysis. Clusters illustrating the major patterns of the data sets. Points: BIK-30: 30 μM abrasin 30 min; BL-30: 1 μM brassinolide 30 min; DMSO-30: control DMSO 30 min; BIK-120: 30 μM abrasin 120 min; BL-120: 1 μM brassinolide 120 min; DMSO-120: control DMSO 120 min.
Col-0 seeds were germinated vertically on ½ MS medium for 7 days under 16 h light/8 h dark cycles. The seedlings were overlaid with liquid ½ MS medium containing 1 μM brassinolide (BL, Fuji Chemical Industries, Ltd., Toyama, Japan), 30 μM abrasin (BIK, ChemBridge Corporation) and DMSO and treated for 30 and 120 min. The shoot parts were collected for RNA isolation. All sampling points were performed in three independent experiments. RNA was extracted using RNeasy kit (Qiagene). […] total RNA per array was used to hybridise the ATH1 Affymetrix Arabidopsis arrays according to standard procedure. The overrepresentation analyses were performed using BiNGO software (Maere et al., 2005).
We performed a microarray analysis using the Arabidopsis whole genome chip (Affymetix) to determine whether abrasin activated the expression of BR-inducible genes at transcriptional level. Wild-type Col-0 seedlings were exposed to 1 μM BL, 30 μM ABRASIN and DMSO (mock-treatment) for two time points (30 min and 120 min) and the shoot parts were collected for RNA isolation. The analysis of the variance of the normalized gene expression data took in account the variability parameters affecting the expression level: type of hormone treatment, duration of treatment and the interaction between these two.

O=C(O)CCC(=O)Nc1ccc(Br)cn1 [abrasin, 4-[(5-bromo-2-pyridinyl)amino]-4-oxobutanoic acid]
expression of BR biosynthesis genes (CPD, DWF4, BR6OX2), Cluster 1 (1 μM BL, 30 μM ABRASIN): down-regulated
expression of WRKY transcription factors, DOF-type proteins, lectin receptor-like kinases, U-box proteins, HAESA (1 μM BL, 30 μM ABRASIN): induces the expression
expression of genes involved in the auxin pathway (IAA29, IAA2) (1 μM BL, 30 μM ABRASIN): significantly down-regulated
induction of early auxin-inducible SAUR family genes, Cluster 3 (1 μM BL, 30 μM ABRASIN, 30 and 120 min): had an effect only after 2 hours
Fold-change AT1G04330 expressed protein (30 min): 1.17
Fold-change AT1G05470 endonuclease/exonuclease/phosphatase family protein (30 min): 1.42
Fold-change AT1G06520 Encodes a membrane associated mitochondrial localized protein (30 min): 1.26
Fold-change AT1G06570 4-hydroxyphenylpyruvate dioxygenase (HPD) (30 min): 0.91
Fold-change AT1G10550 xyloglucan:xyloglucosyl transferase (30 min): 1.26
Fold-change AT1G12710 F-box family protein (30 min): 0.88
Fold-change AT1G12750 rhomboid family protein (30 min): 1.46
Fold-change AT1G14130 2-oxoglutarate-dependent dioxygenase (30 min): 1.10
Fold-change AT1G14700 purple acid phosphatase (30 min): 0.53
Fold-change AT1G16640 transcriptional factor B3 family protein (30 min): 1.14
Fold-change AT1G17230 leucine-rich repeat family protein (30 min): 1.09
Fold-change AT1G18020; AT1G17990 [AT1G18020, 12-oxophytodienoate reductase, (30 min): 1.31
Fold-change AT1G19320 pathogenesis-related thaumatin family protein (30 min): 0.52
Fold-change AT1G20350 mitochondrial import inner membrane translocase subunit (30 min): 1.00
Fold-change AT1G21050 expressed protein (30 min): 0.32
Fold-change AT1G21760 F-box family protein (30 min): 0.76
Fold-change AT1G22360 UDP-glucoronosyl/UDP-glucosyl transferase family protein (30 min): 0.82
Fold-change AT1G23080 auxin efflux carrier protein (PIN7) (30 min): 0.81
Fold-change AT1G26800 zinc finger (C3HC4-type RING finger) family protein, (30 min): 1.07
Fold-change AT1G27730 zinc finger (C2H2 type) family protein (30 min): 0.56
Fold-change AT1G28130 encodes an IAA-amido synthase (30 min): 0.64
Fold-change AT1G28190 expressed protein (30 min): 2.79
Fold-change AT1G28480 glutaredoxin family protein (30 min): 1.02
Fold-change AT1G31040 zinc-binding protein-related (30 min): 1.35
Fold-change AT1G31310 hydroxyproline-rich glycoprotein family protein (30 min): 1.17
Fold-change AT1G31770 ABC transporter family protein (30 min): 0.91
Fold-change AT1G32190 expressed protein (30 min): 0.73
Fold-change AT1G32690 expressed protein (30 min): 0.38
Fold-change AT1G36940 expressed protein (30 min): 0.45
Fold-change AT1G49780 U-box domain-containing protein (30 min): 0.71
Fold-change AT1G53870; AT1G53890 [AT1G53870, expressed protein (30 min): 0.43
Fold-change AT1G54050 17.4 kDa class III heat shock protein (HSP17.4-CIII) (30 min): 1.16
Fold-change AT1G54200 expressed protein (30 min): 1.26
Fold-change AT1G55920 serine O-acetyltransferase (30 min): 2.19
Fold-change AT1G57560 myb family transcription factor (MYB50) (30 min): 1.19
Fold-change AT1G59590 expressed protein (30 min): 1.99
Fold-change AT1G59660 nucleoporin family proteinmily (30 min): 1.45
Fold-change AT1G62300 WRKY family transcription factor (30 min): 1.58
Fold-change AT1G63050 membrane bound O-acyl transferase (MBOAT) family protein (30 min): 0.75
Fold-change AT1G66160 U-box domain-containing protein, (30 min): 2.03
Fold-change AT1G66890 expressed protein (30 min): 0.65
Fold-change AT1G68330 expressed protein (30 min): 1.76
Fold-change AT1G68810 basic helix-loop-helix (bHLH) family protein (30 min): 0.80
Fold-change AT1G69160 expressed protein (30 min): 0.67
Fold-change AT1G70990 proline-rich family protein (30 min): 1.70
Fold-change AT1G71030 Encodes a putative myb family transcription factor (30 min): 0.92
Fold-change AT1G72060 expressed protein (30 min): 2.19
Fold-change AT1G72180 leucine-rich repeat transmembrane protein kinase (30 min): 0.54
Fold-change AT1G72800 nuM1-related, contains (30 min): 1.15
Fold-change AT1G75270 dehydroascorbate reductase (30 min): 1.16
Fold-change AT1G75500 nodulin MtN21 family protein (30 min): 0.67
Fold-change AT1G76240 expressed protein, (30 min): 0.40
Fold-change AT1G76410 zinc finger (C3HC4-type RING finger) (30 min): 0.54
Fold-change AT1G79110 expressed protein (30 min): 0.66
Fold-change AT1G79630 protein phosphatase 2C family protein (30 min): 0.62
Fold-change AT1G80440 kelch repeat-containing F-box family protein (30 min): 1.36
Fold-change AT2G01300 expressed protein (30 min): 0.73
Fold-change AT2G01990 expressed protein, (30 min): 1.89
Fold-change AT2G04240 zinc finger (C3HC4-type RING finger) family protein (30 min): 0.77
Fold-change AT2G05540 glycine-rich protein (30 min): 0.71
Fold-change AT2G12290; AT4G19700 [AT2G12290, expressed protein]; [AT4G19700, expressed protein] (30 min): 0.38
Fold-change AT2G18010 auxin-responsive family protein (SAUR10) (30 min): 1.35
Fold-change AT2G19800 expressed protein (30 min): 2.29
Fold-change AT2G22860 phytosulfokines 2 (PSK2) (30 min): 0.68
Fold-change AT2G23180 cytochrome P450, putative (30 min): 0.67
Fold-change AT2G23320 WRKY family transcription factor (30 min): 1.41
Fold-change AT2G26530 expressed protein (30 min): 1.24
Fold-change AT2G26710 cytochrome p450 family (BAS1) (30 min): 0.72
Fold-change AT2G28510 Dof-type zinc finger domain-containing protein (30 min): 1.28
Fold-change AT2G29340 short-chain dehydrogenase/reductase (SDR) family protein (30 min): 1.55
Fold-change AT2G29990 pyridine nucleotide-disulphide oxidoreductase family protein (30 min): 1.43
Fold-change AT2G30070 potassium transporter (KUP1) (30 min): 0.61
Fold-change AT2G31230 encodes a member of the ERF (ethylene response factor) (30 min): 2.13
Fold-change AT2G34650 protein kinase PINOID (PID) (30 min): 1.04
Fold-change AT2G36220 expressed protein (30 min): 1.10
Fold-change AT2G37590 Dof-type zinc finger domain-containing protein (30 min): 1.52
Fold-change AT2G38470 WRKY family transcription factor (30 min): 2.02
Fold-change AT2G39710 aspartyl protease family protein (30 min): 2.42
Fold-change AT2G40340; AT2G40350 [AT2G40340, encodes a member of the DREB subfamily A-2 of ERF/AP2 (30 min): 1.40
Fold-change AT2G41250 haloacid dehalogenase-like hydrolase family protein (30 min): 0.82
Fold-change AT2G41640 expressed protein (30 min): 1.96
Fold-change AT2G42280 basic helix-loop-helix (bHLH) family protein (30 min): 0.67
Fold-change AT2G43060 expressed protein, similar to cDNA bHLH transcription factor (30 min): 0.31
Fold-change AT2G43280 far-red impaired responsive family protein (30 min): 0.78
Fold-change AT2G43290 calmodulin-like protein (MSS3) (30 min): 0.81
Fold-change AT2G44130 kelch repeat-containing F-box family protein (30 min): 1.13
Fold-change AT2G44500 expressed protein (30 min): 1.26
Fold-change AT2G45210 auxin-responsive protein-related (30 min): 0.34
Fold-change AT2G45680 TCP family transcription factor (30 min): 0.50
Fold-change AT2G46225 Encodes a subunit of the WAVE complex (30 min): 1.15
Fold-change AT2G47440 DNAJ heat shock N-terminal domain-containing protein (30 min): 1.07
Fold-change AT3G04210 disease resistance protein (TIR-NBS class), putative, (30 min): 2.18
Fold-change AT3G09920 phosphatidylinositol-4-phosphate 5-kinase family protein (30 min): 1.56
Fold-change AT3G12920 expressed protein (30 min): 0.45
Fold-change AT3G13040 myb family transcription factor (30 min): 0.93
Fold-change AT3G13510 expressed protein (30 min): 0.85
Fold-change AT3G13980 expressed protein (30 min): 0.25
Fold-change AT3G14370 protein kinase family protein (30 min): 1.10
Fold-change AT3G14560 expressed protein (30 min): 0.59
Fold-change AT3G16570 rapid alkalinization factor (RALF) family protein (30 min): 0.54
Fold-change AT3G17860 expressed protein (30 min): 0.78
Fold-change AT3G18830 polyol/cyclitol/monosaccharide-H+-symporte (30 min): 1.64
Fold-change AT3G19380 U-box domain-containing protein (30 min): 0.67
Fold-change AT3G23030 auxin-responsive protein/indoleacetic acid-induced protein 2 (IAA2) (30 min): 0.55
Fold-change AT3G23550 MATE efflux family protein (30 min): 0.67
Fold-change AT3G25710 basic helix-loop-helix (bHLH) family protein (30 min): 0.48
Fold-change AT3G25900 homocysteine S-methyltransferase 1 (HMT-1) (30 min): 1.32
Fold-change AT3G26910 hydroxyproline-rich glycoprotein family protein (30 min): 2.49
Fold-change AT3G30180 cytochrome p450 enzyme (30 min): 0.09
Fold-change AT3G46880 expressed protein, (30 min): 1.50
Fold-change AT3G47800 aldose 1-epimerase family protein (30 min): 0.91
Fold-change AT3G48970 copper-binding family protein (30 min): 0.40
Fold-change AT3G49810 U-box domain-containing protein (30 min): 1.29
Fold-change AT3G50650 scarecrow-like transcription factor 7 (SCL7) (30 min): 1.51
Fold-change AT3G50660 steroid 22-alpha-hydroxylase (CYP90B1) (DWF4) (30 min): 0.47
Fold-change AT3G50750 brassinosteroid signalling positive regulator-related (BEH1) (30 min): 0.63
Fold-change AT3G52490 heat shock protein-related (30 min): 1.17
Fold-change AT3G53810 lectin protein kinase (30 min): 2.28
Fold-change AT3G54950 patatin-related, (30 min): 0.58
Fold-change AT3G55120 chalcone-flavanone isomerase (30 min): 0.94
Fold-change AT3G55150 exocyst subunit EXO70 family protein (30 min): 3.44
Fold-change AT3G55840 expressed protein (30 min): 1.05
Fold-change AT3G61460 zinc finger (C3HC4-type RING finger) family protein (BRH1) (30 min): 0.43
Fold-change AT3G63300 expressed protein (30 min): 1.26
Fold-change AT4G01680 myb family transcription factor (MYB55) (30 min): 0.21
Fold-change AT4G02410 lectin protein kinase family protein (30 min): 2.60
Fold-change AT4G08040 1-aminocyclopropane-1-carboxylate synthase, putative (30 min): 0.08
Fold-change AT4G09460 myb family transcription factor (30 min): 1.50
Fold-change AT4G12390 invertase/pectin methylesterase inhibitor family protein (30 min): 0.75
Fold-change AT4G12410 auxin-responsive family protein (30 min): 0.66
Fold-change AT4G14130 xyloglucan:xyloglucosyl transferase (30 min): 0.37
Fold-change AT4G15975 zinc finger (C3HC4-type RING finger) family protein (30 min): 2.33
Fold-change AT4G16146 expressed protein (30 min): 0.91
